According to paper PMC11530130, “Peripherally restricted PICK1 inhibitor mPD5 ameliorates pain behaviors in murine inflammatory and neuropathic pain models” (JCI Insight, 2024):
“And” between values parts separate entries of the source, which are not always exact repeats. Equal entries are not always repeated.

System: mice, CFA model of inflammatory pain
Assay: Single exposure place preference (sePP), CFA mice
Assay type: in vivo, mouse
Set-up: time spent in the paired compartment, individual mice: reference not given here
Description: On days 6-8, the escape hole was moved
90 degrees, and all mice went through the second bout of training. On day nine, a second probe trial was performed testing the reversal learning of the mice.
Cancer induced bone pain was induced as described in the “Induction of cancer induced bone pain (CIBP model)"-section. For the assessment of limb use, all mice from one cage were placed in an empty transparent plastic box and left for ten min to habituate. One mouse at a time was moved by tunnel handling or scooping to an identical plastic box for the limb use test. […]
gait, 3 Insignificant limping, 2 Significant limping and shift in bodyweight towards the healthy limb 1 Significant limping and partial lack of use of ipsilateral leg 0 Total lack of use of ipsilateral leg. A score of 0 was used as a humane endpoint. Urine and faeces were cleaned from the plastic box with a dry paper towel between mice from the same cage, and a new plastic box was used for mice from different cages. The limb use test was video filmed for later […]
Assessment of static weight bearing. […]
Initial perception of the drugs was measured by single exposure place preference experiments performed in an elongated three compartment apparatus (67.5 cm x 24 cm) with a biased design of different floor textures and wall patterns and a neutral zone in the middle. […]

## CCCCCCCCCCCCCC(=O)N(CCOCCOCCC(=O)N[C@@H](Cc1c[nH]cn1)C(=O)N[C@@H](Cc1c[nH]c2ccccc12)C(=O)N[C@@H](CC(C)C)C(=O)N[C@@H](CCCCN)C(=O)N[C@H](C(=O)O)C(C)C)CCOCCOCCC(=O)N[C@@H](Cc1c[nH]cn1)C(=O)N[C@@H](Cc1c[nH]c2ccccc12)C(=O)N[C@@H](CC(C)C)C(=O)N[C@@H](CCCCN)C(=O)N[C@H](C(=O)O)C(C)C [mPD5, myristoyl-NPEG4-(HWLKV)2]
CFA animals, s.c. 30 μmol/kg in the gray (paired) compartment
  time in the paired compartment compared with the PBS animals (sePP): significantly more time in the paired compartment
CFA mice conditioned with 30 μmol/kg
  time spent in the paired compartment, individual mice: 1.043 and 0.9432 and 1.1179 and 0.8953 and 1.389 and 1.4664 and 0.991 and 1.199 and 1.802 and 0.8487 and 1.092 and 1.425
